We go through 13 compounds from ChEMBL document CHEMBL1201862, “PubChem BioAssay data set” (2004).

Test systems include SF-295; OVCAR-5; HCT-116; HT-29; SNB-19; SN12C; HOP-92; NCI-H23; SF-268; EKVX; UACC-257; OVCAR-8; SK-MEL-2; 786-0; SNB-75; RPMI-8226; NCI-H522.
Holding throughout (assay): growth of human tumour cells (NCI), 48 h

Each structure is given as a SMILES string.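 Method: 48-hour compound exposure of cells in 96-well plates, five concentrations, linear interpolation of endpoints. GI50 marks 50% less growth.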 The source made the active and inactive calls. No stated cut-off is given here; in the data, active = GI50 up to about 1.1 µM and inactive = higher.

For the compound `Cc1cc2c(=O)cc(-c3ccncc3)oc2c(C(N)=O)c1C`, the GI50 in the experiment on SF-295 is > 100 µM (inactive); in the experiment on OVCAR-5 it was > 100 µM (inactive); in the experiment with HCT-116, 83.4 µM (inactive); in the experiment on HT-29, > 100 µM (inactive); in the experiment on SNB-19, > 100 µM (inactive); in the experiment on SN12C, > 100 µM (inactive). Moreover, the GI50 in the experiment with HOP-92, in the experiment with NCI-H23, in the experiment with SF-268, with EKVX, with UACC-257 and in the experiment on OVCAR-8 was > 100 µM (inactive) throughout. For the same compound, the GI50 in the experiment with SK-MEL-2, with 786-0, with SNB-75 and in the experiment with RPMI-8226 was > 100 µM (inactive) throughout.
Consider `COc1ccc2c3c([nH]c2c1[N+](=O)[O-])C(C)=NCC3`, for which the GI50 with SF-295 is 72.8 µM (inactive); with OVCAR-5, 61 µM (inactive); in the experiment with HCT-116, 30.2 µM (inactive); in the experiment with HT-29, 56.8 µM (inactive); with SNB-19, > 100 µM (inactive); with SN12C, 80.7 µM (inactive). Further, the GI50 in the experiment with NCI-H23 is > 10 µM (inactive); with SF-268, 20 µM (inactive); in the experiment on EKVX it was > 100 µM (inactive); in the experiment with UACC-257, > 100 µM (inactive); with OVCAR-8, 62.7 µM (inactive); in the experiment with SK-MEL-2, > 100 µM (inactive). Besides, the GI50 was > 100 µM (inactive) in the experiment on 786-0, > 100 µM (inactive) in the experiment with NCI-H522, > 100 µM (inactive) in the experiment on SNB-75 and 39.7 µM (inactive) in the experiment on RPMI-8226.
Take `N#Cc1c(-c2ccccc2)cc(-c2ccc(N)cc2)[nH]c1=O`: the GI50 with SF-295, with OVCAR-5, in the experiment with HCT-116, with HT-29, in the experiment with SNB-19 and in the experiment on SN12C was > 100 µM (inactive) throughout. Besides, the GI50 in the experiment with HOP-92, in the experiment on NCI-H23, in the experiment on SF-268, in the experiment on EKVX, with UACC-257 and in the experiment with OVCAR-8 was > 100 µM (inactive) each time. The GI50 in the experiment with 786-0 was > 100 µM (inactive); in the experiment on NCI-H522 it was > 100 µM (inactive); in the experiment with SNB-75 it was 25.2 µM (inactive); in the experiment with RPMI-8226, > 100 µM (inactive).
In the case of `COC(=O)/C(=N\Nc1nnc(C)n1N)C(C#N)c1ccc(Cl)cc1` (configuration not stated), the GI50 in the experiment with SF-295, with OVCAR-5, in the experiment on HCT-116, with HT-29, with SNB-19 and in the experiment on SN12C was > 100 µM (inactive) in each case. Moreover, the GI50 with HOP-92, in the experiment with NCI-H23, in the experiment with SF-268, in the experiment with EKVX, in the experiment on UACC-257 and with OVCAR-8 was > 100 µM (inactive) each time. The GI50 was > 100 µM (inactive) with SK-MEL-2, 34.7 µM (inactive) with 786-0, > 100 µM (inactive) in the experiment with SNB-75 and > 100 µM (inactive) with RPMI-8226.
As for `O=C(O)CCc1nn2c(nc1=O)sc1ccc3ccccc3c12`, the GI50 in the experiment with SF-295, in the experiment on HCT-116, with HT-29, in the experiment on SNB-19, in the experiment on SN12C and with HOP-92 was > 100 µM (inactive) in each case. The GI50 in the experiment on NCI-H23, in the experiment with SF-268, in the experiment with EKVX, with UACC-257, in the experiment with OVCAR-8 and in the experiment with 786-0 was > 100 µM (inactive) throughout. Further, the GI50 in the experiment with SNB-75 and with RPMI-8226 was > 100 µM (inactive) throughout.
Take `N#Cc1ccc(C(C2C(=O)NC(=O)NC2=O)C2C(=O)NC(=O)NC2=O)cc1`: the GI50 with SF-295, in the experiment with OVCAR-5, in the experiment on HCT-116, in the experiment on HT-29, with SNB-19 and with SN12C was > 100 µM (inactive) each time. Moreover, the GI50 in the experiment on HOP-92, with NCI-H23, with SF-268, in the experiment with EKVX, in the experiment on UACC-257 and in the experiment on OVCAR-8 was > 100 µM (inactive) throughout. Also, the GI50 in the experiment with SK-MEL-2, in the experiment with 786-0, in the experiment on NCI-H522 and in the experiment on RPMI-8226 was > 100 µM (inactive) each time.
As for `COc1ccc(C(C#N)Cc2cc(OC)c(OC)c(OC)c2)cc1` (configuration not stated), the GI50 was 10.3 µM (inactive) in the experiment on SF-295; 64.7 µM (inactive) in the experiment on OVCAR-5; 39.9 µM (inactive) with HCT-116; 33 µM (inactive) in the experiment with HT-29; 54.2 µM (inactive) in the experiment on SNB-19; 41.3 µM (inactive) in the experiment on SN12C. The GI50 in the experiment with HOP-92 was 21.7 µM (inactive); in the experiment on SF-268 it was 49.2 µM (inactive); in the experiment on EKVX, 40.7 µM (inactive); with UACC-257 it was 50.5 µM (inactive); with OVCAR-8, 37 µM (inactive); with 786-0, 44.1 µM (inactive). Further, the GI50 in the experiment on NCI-H522 is 22.4 µM (inactive); with RPMI-8226, 23.4 µM (inactive).
As to `CSc1ccc(Cc2cc(C(C)(C)C)cc(C(C)(C)C)c2O)cc1`, the GI50 in the experiment with SF-295 was 17.6 µM (inactive); in the experiment with OVCAR-5, 3.11 µM (inactive); in the experiment on HCT-116, 10.8 µM (inactive); in the experiment with HT-29 it was 13.8 µM (inactive); with SNB-19 it was 16.3 µM (inactive); with SN12C, 15.1 µM (inactive). The GI50 in the experiment on NCI-H23 is 14.5 µM (inactive); in the experiment on SF-268 it was 15.8 µM (inactive); with EKVX, 18.2 µM (inactive); in the experiment with UACC-257 it was 14.7 µM (inactive); in the experiment with OVCAR-8 it was 16.9 µM (inactive); with SK-MEL-2 it was 3.88 µM (inactive). For the same compound, the GI50 is 16.7 µM (inactive) in the experiment on 786-0, 16 µM (inactive) in the experiment on SNB-75 and 4.45 µM (inactive) in the experiment with RPMI-8226.
For the compound `CCN1CCN(c2ccc(Nc3ccnc4ccc5nn(C)nc5c34)cc2)CC1`, the GI50 was 12.4 µM (inactive) in the experiment with SF-295; 15.9 µM (inactive) in the experiment with OVCAR-5; 5.58 µM (inactive) in the experiment with HCT-116; 4.26 µM (inactive) in the experiment with HT-29; 18.7 µM (inactive) in the experiment on SNB-19; 10.7 µM (inactive) in the experiment on SN12C. The GI50 in the experiment on HOP-92 was 11.9 µM (inactive); in the experiment on NCI-H23, 15.4 µM (inactive); in the experiment on SF-268 it was 14.9 µM (inactive); in the experiment on UACC-257 it was 16.6 µM (inactive); in the experiment with OVCAR-8, 9.71 µM (inactive); with 786-0, 10.4 µM (inactive). Also, the results for the GI50 in the experiment on NCI-H522, in the experiment on SNB-75 and in the experiment with RPMI-8226 were 11.1 µM (inactive), 13.2 µM (inactive) and 7.08 µM (inactive), respectively.
Consider `COc1ccc(/C=N\N2C(=O)Cc3ccccc32)cc1`, for which the GI50 was 51.6 µM (inactive) in the experiment with SF-295; > 100 µM (inactive) with OVCAR-5; > 100 µM (inactive) in the experiment on HCT-116; > 100 µM (inactive) in the experiment on HT-29; > 100 µM (inactive) with SNB-19; 22.3 µM (inactive) with HOP-92. Moreover, the GI50 in the experiment with NCI-H23 was > 100 µM (inactive); with SF-268, 74.3 µM (inactive); with EKVX, > 100 µM (inactive); with UACC-257, > 100 µM (inactive); with OVCAR-8 it was > 100 µM (inactive); with SK-MEL-2, > 100 µM (inactive). The results for the GI50 with 786-0, in the experiment on SNB-75 and in the experiment on RPMI-8226 were > 100 µM (inactive), 17.9 µM (inactive) and > 100 µM (inactive), respectively.
As to `O=C(N/N=C/c1cc(Br)ccc1O)N/N=C/c1cc(Br)ccc1O`, the GI50 in the experiment with SF-295 is 3.84 µM (inactive); in the experiment on OVCAR-5, 2.84 µM (inactive); in the experiment with HT-29, 5.97 µM (inactive); in the experiment on SNB-19, 5.31 µM (inactive); in the experiment with SN12C it was 5.35 µM (inactive); in the experiment on HOP-92, 0.661 µM (active). Moreover, the GI50 is 2.31 µM (inactive) in the experiment with NCI-H23; 5.75 µM (inactive) in the experiment with SF-268; 4.93 µM (inactive) in the experiment on EKVX; 4.3 µM (inactive) with UACC-257; 2.54 µM (inactive) in the experiment on OVCAR-8; 4.93 µM (inactive) with 786-0. In the experiment on NCI-H522, the GI50 is 1.99 µM (inactive).
As to `CCOC(=O)NC(=O)c1cn(C2OC(COC(=O)CCCCCCCCC(=O)OCC3OC(n4cc(C(=O)NC(=O)OCC)c(=O)[nH]c4=O)C(O)C3O)C(O)C2O)c(=O)[nH]c1=O` (configuration not stated), the GI50 with SF-295, in the experiment on OVCAR-5, in the experiment with HCT-116, with HT-29, with SNB-19 and with SN12C was > 100 µM (inactive) each time. Also, the GI50 in the experiment with NCI-H23, in the experiment on SF-268, in the experiment with EKVX, with UACC-257, in the experiment with OVCAR-8 and with SK-MEL-2 was > 100 µM (inactive) each time. The GI50 with 786-0, in the experiment on SNB-75 and in the experiment on RPMI-8226 was > 100 µM (inactive) each time.
With `CC1CC(c2ccc(Cl)cc2)=Nc2ccccc2S1` (configuration not stated), the GI50 in the experiment with SF-295, in the experiment on OVCAR-5, with HCT-116, in the experiment with HT-29, in the experiment on SNB-19 and in the experiment on SN12C was > 100 µM (inactive) each time. Moreover, the GI50 in the experiment with NCI-H23, in the experiment with SF-268, in the experiment on EKVX, in the experiment with UACC-257, with OVCAR-8 and in the experiment with SK-MEL-2 was > 100 µM (inactive) throughout. Further, the GI50 in the experiment with 786-0, in the experiment on NCI-H522, in the experiment on SNB-75 and in the experiment on RPMI-8226 was > 100 µM (inactive) in each case.
